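Compound exposure: 48 hours, 5 concentrations, 96-well plates. TGI: concentration producing complete growth inhibition.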
What was measured:
Assay in all cases: NCI tumour cell line growth inhibition, 48 h
A549 NSCLC = tested on: A549 NSCLC
SK-MEL-2 melanoma = tested on: SK-MEL-2 melanoma
M19-MEL melanoma = tested on: M19-MEL melanoma
DLD-1 colon = tested on: DLD-1 colon
NCI-H23 lung = tested on: NCI-H23 lung
EKVX NSCLC = tested on: EKVX NSCLC
HCC-2998 colon = tested on: HCC-2998 colon
OVCAR-4 ovarian = tested on: OVCAR-4 ovarian
P388 leukemia = tested on: P388 leukemia
SK-MEL-5 melanoma = tested on: SK-MEL-5 melanoma
HL-60(TB) leukemia = tested on: HL-60(TB) leukemia
DMS 273 small cell lung = tested on: DMS 273 small cell lung
NCI-H460 lung = tested on: NCI-H460 lung
LOX IMVI melanoma = tested on: LOX IMVI melanoma
SF-268 CNS = tested on: SF-268 CNS
SK-OV-3 ovarian = tested on: SK-OV-3 ovarian
RPMI-8226 leukemia = tested on: RPMI-8226 leukemia
HOP-62 NSCLC = tested on: HOP-62 NSCLC
KM20L2 colon = tested on: KM20L2 colon
P388/ADR leukemia = tested on: P388/ADR leukemia
NCI-H522 lung = tested on: NCI-H522 lung
SNB-19 CNS = tested on: SNB-19 CNS
RXF 393 renal = tested on: RXF 393 renal
K-562 leukemia = tested on: K-562 leukemia
CAKI-1 renal = tested on: CAKI-1 renal
U251 CNS = tested on: U251 CNS
IGROV1 ovarian = tested on: IGROV1 ovarian
NCI-H226 lung = tested on: NCI-H226 lung
SW-620 colon = tested on: SW-620 colon
HCT-116 colon = tested on: HCT-116 colon
NCI/ADR-RES ovarian = tested on: NCI/ADR-RES ovarian
SF-539 CNS = tested on: SF-539 CNS
KM12 colon = tested on: KM12 colon
SN12C renal = tested on: SN12C renal
HOP-92 NSCLC = tested on: HOP-92 NSCLC
UACC-62 melanoma = tested on: UACC-62 melanoma
MALME-3M melanoma = tested on: MALME-3M melanoma
OVCAR-5 ovarian = tested on: OVCAR-5 ovarian
HCT-15 colon = tested on: HCT-15 colon
OVCAR-8 ovarian = tested on: OVCAR-8 ovarian
COLO 205 colon = tested on: COLO 205 colon
SF-295 CNS = tested on: SF-295 CNS
HT29 colon = tested on: HT29 colon
OVCAR-3 ovarian = tested on: OVCAR-3 ovarian
SNB-75 CNS = tested on: SNB-75 CNS
UO-31 renal = tested on: UO-31 renal
SN12K1 renal = tested on: SN12K1 renal
UACC-257 melanoma = tested on: UACC-257 melanoma
SNB-78 CNS = tested on: SNB-78 CNS
HOP-18 NSCLC = tested on: HOP-18 NSCLC
CCRF-CEM leukemia = tested on: CCRF-CEM leukemia
DMS 114 small cell lung = tested on: DMS 114 small cell lung
A498 renal = tested on: A498 renal
MCF7 breast = tested on: MCF7 breast
MOLT-4 leukemia = tested on: MOLT-4 leukemia
SK-MEL-28 melanoma = tested on: SK-MEL-28 melanoma

Measured: TGI

O=C1Nc2ccccc2Nc2ccncc21
> 31.6 µM: P388/ADR leukemia | SN12C renal
> 100 µM: all other assays above
